# Reference: US20140213538A1, “LYSOPHOSPHATIDIC ACID RECEPTOR ANTAGONISTS” (InterMune, Inc., priority 2013, published 2014)
# How the values were obtained:
# Type in all cases: cell-based
# [1] = molecular target: T1, LPA1 (Homo sapiens, UniProt Q92633); assay: LPA1 Migration Assay (Oris); parameters: host or cells: primary fibroblasts (lung, dermal), HFL-1, 3T3 and CHO cells expressing LPA1R; settings: read-out: Cell Migration EC50
# How it was run: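 Oris exclusion-zone migration of LPA1R-expressing cells (primary lung/dermal fibroblasts, HFL-1, 3T3, CHO), Cell Tracker Green-loaded and serum-starved 12-24 h, toward LPA or serum. Fixed cells in the detection zone were counted by high-content imaging, and cell number vs. concentration was fitted to a 4-parameter logistic.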
# [2] = molecular target: T1, LPA1; assay: Ca Flux LPA1 assay; parameters: the full-length cDNA for human LPA1 is obtained by PCR of the reverse transcription reaction; expressed in transfected cells
# [3] = molecular target: T2, LPA/S1P GPCR of interest (Homo sapiens, UniProt Q92633); assay: Beta-Arrestin based assay (PathHunter)
# T2 construct: host or cells: CHO
# T2 sequence (Q92633 whole entry): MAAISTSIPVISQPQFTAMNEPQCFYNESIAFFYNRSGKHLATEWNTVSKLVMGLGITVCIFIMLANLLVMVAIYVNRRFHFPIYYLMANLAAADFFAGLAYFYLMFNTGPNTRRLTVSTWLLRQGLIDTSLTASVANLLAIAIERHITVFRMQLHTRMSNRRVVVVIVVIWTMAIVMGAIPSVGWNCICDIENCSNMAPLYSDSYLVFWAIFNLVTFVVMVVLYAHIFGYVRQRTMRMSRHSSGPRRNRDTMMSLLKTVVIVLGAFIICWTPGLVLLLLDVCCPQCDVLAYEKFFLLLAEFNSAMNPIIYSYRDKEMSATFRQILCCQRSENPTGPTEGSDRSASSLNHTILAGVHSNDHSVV
# How it was run: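 EA Parental CHO cells (DiscoverX) were transfected with FuGENE (Roche) using CMV promoter-driven DNA constructs encoding the LPA/S1P GPCR of interest fused to a ProLink tag. Beta-arrestin recruitment in agonist mode was assessed 24-48 hrs later with PathHunter kits. Tests ran in quadruplicate in white 384 well plates, and end point luminescence was fit to a 4 parameter logistic function.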
# T1 sequence (Q92633 whole entry): as above
EC50 [1] [nM],IC50 [2] [nM],EC50 [3] [nM],SMILES
< 50,< 50,< 50,C[C@@H](OC(=O)Nc1c(-c2ccc(-c3cc(F)c(Oc4ccccc4C(=O)O)c(F)c3)cc2)cnn1C)c1ccccc1 [IT425]
50 to 500,50 to 500,–,"Cc1nsc(-c2ccc(-c3ccc(C4(C(=O)O)CC4)cc3)cc2)c1NC(=O)OC(c1ccccc1)C(F)(F)F (single isomer, unassigned) [IT078]"
< 50,< 50,< 50,Cc1nnn(-c2ccc(-c3cc(F)c(Oc4ccccc4C(=O)O)c(F)c3)cc2)c1NC(=O)O[C@H](C)c1ccccc1 [IT408]
50 to 500,< 50,< 50,C[C@@H](OC(=O)Nc1c(C#Cc2cc3sc(C4(c5nn[nH]n5)CC4)cc3s2)cnn1C)c1ccccc1 [IT104]
< 50,< 50,< 50,Cc1noc(-c2ccc(-c3ccc(OC(C)(C)C(=O)O)cc3)cc2)c1NC(=O)O[C@H](C)c1ccccc1 [IT226]
50 to 500,< 50,< 50,Cc1noc(-c2ccc(-c3ccc(OC4(C(=O)O)CCC4)cc3)cc2)c1NC(=O)O[C@H](C)c1ccccc1 [IT196]
50 to 500,< 50,< 50,Cc1noc(-c2ccc(-c3cc(F)c(OC4(C(=O)O)CC4)c(F)c3)cc2)c1NC(=O)O[C@H](C)c1ccccc1 [IT304]
> 500,50 to 500,–,Cc1nsc(-c2ccc(C3CCC(C4(C(=O)O)CC4)CC3)cc2)c1NC(=O)O[C@H](C)c1ccccc1 (stereo partly shown) [IT091]
50 to 500,> 500,< 50,Cc1nsc(-c2cc3sc(-c4ccc(C5(C(=O)O)CC5)cc4)cc3s2)c1NC(=O)O[C@H](C)c1ccccc1 [IT120]
< 50,> 500,< 50,Cc1noc(-c2ccc(-c3cc(F)c(Oc4ccccc4C(=O)O)c(F)c3)cc2)c1NC(=O)O[C@H](C)c1ccccc1Cl [IT449]
50 to 500,< 50,< 50,"CCC(C)OC(=O)Nc1c(C)noc1-c1ccc(-c2ccc(Oc3ccccc3C(=O)O)cc2)cc1 (single isomer, unassigned) [IT494]"
< 50,< 50,< 50,C[C@@H](OC(=O)Nc1c(-c2ccc(-c3cc(F)c(Oc4cccnc4C(=O)O)c(F)c3)cc2)nnn1C)c1ccccc1 [IT452]
50 to 500,< 50,< 50,C[C@@H](OC(=O)Nc1c(-c2ccc(-c3ccc(Oc4ccccc4C(=O)O)cc3)cc2)cnn1C)c1ccccc1 [IT198]
50 to 500,< 50,–,Cc1noc(C#Cc2nc3sc(C4(C(=O)O)CC4)cc3s2)c1NC(=O)O[C@H](C)c1ccccc1 [IT102]
–,< 50,–,C[C@@H](OC(=O)Nc1c(C#Cc2nc3sc(C4(C(=O)O)CC4)cc3s2)cnn1C)c1ccccc1 [IT095]
–,50 to 500,< 50,CCc1nc(C(=O)O)c(Oc2ccc(-c3ccc(-c4onc(C)c4NC(=O)O[C@H](C)c4ccccc4)cc3)cc2)o1 [IT434]
> 500,50 to 500,–,C[C@@H](OC(=O)Nc1c(C(F)(F)F)nnn1-c1ccc(-c2ccc(C3(C(=O)O)CC3)cc2)cc1)c1ccccc1 [IT072]
> 500,–,> 500,Cc1noc(-c2ccc(-c3ccc(S(=O)(=O)C4CC4)cc3)cc2)c1NC(=O)O[C@H](C)c1ccccc1 [IT173]
> 500,–,50 to 500,Cc1cc(CC(=O)O)ccc1-c1cc2sc(-c3cnn(C)c3NC(=O)O[C@H](C)c3ccccc3)cc2s1 [IT169]
> 500,–,> 500,Cc1noc(-c2ccc(-c3ccc(S(=O)(=O)CC4CC4)cc3)cc2)c1NC(=O)O[C@H](C)c1ccccc1 [IT174]
50 to 500,–,< 50,C[C@@H](OC(=O)Nc1c(-c2cc3sc(-c4ccc(C5(C(=O)O)CC5)cc4Cl)cc3s2)cnn1C)c1ccccc1 [IT389]
> 500,–,> 500,Cc1noc(-c2ccc(-c3ccc(NC(=O)OC(C)(C)C)cc3)cc2)c1NC(=O)O[C@H](C)c1ccccc1 [IT194]
> 500,–,> 500,COc1cc(CC(=O)O)ccc1-c1cc2sc(-c3cnn(C)c3NC(=O)O[C@H](C)c3ccccc3)cc2s1 [IT162]
50 to 500,< 50,–,C[C@@H](OC(=O)Nc1c(C#Cc2sc3cc(C4(C(=O)O)CC4)sc3c2C(F)(F)F)cnn1C)c1ccccc1 [IT103]
50 to 500,–,< 50,Cc1nsc(-c2ccc(-c3ccc(OC4(C(=O)O)CC4)cc3)cc2)c1NC(=O)O[C@H](C)c1ccccc1 [IT513]
50 to 500,–,< 50,C[C@@H](OC(=O)Nc1c(-c2cc3sc(-c4ccc(C5(C(=O)O)CC5)cc4F)cc3s2)nnn1C)c1ccccc1 [IT246]
50 to 500,–,< 50,C[C@@H](OC(=O)Nc1c(-c2cc3sc(-c4ccc(C5(C(=O)O)CC5)c(F)c4F)cc3s2)nnn1C)c1ccccc1 [IT365]

EC50 [1] [nM],IC50 [2] [nM],EC50 [3] [nM],SMILES
50 to 500,–,50 to 500,C[C@@H](OC(=O)Nc1c(-c2ccc(-c3ccc(C(C(=O)O)C4COC4)cc3)cc2)cnn1C)c1ccccc1 (stereo partly shown) [IT150]
> 500,–,> 500,CCOc1cc(CC(=O)O)ccc1-c1cc2sc(-c3nnn(C)c3NC(=O)O[C@H](C)c3ccccc3)cc2s1 [IT191]
> 500,–,50 to 500,C[C@@H](OC(=O)Nc1c(-c2ccc(-c3ccc(OC4(C(=O)O)CC4)c(F)c3)cc2)oc2ccccc12)c1ccccc1 [IT492]
> 500,–,50 to 500,Cc1nsc(-c2ccc(-c3ccc(OC(C)(C)C(=O)O)cc3)cc2)c1NC(=O)O[C@H](C)c1ccccc1 [IT509]
50 to 500,–,< 50,C[C@@H](OC(=O)Nc1c(-c2cc3sc(-c4cc(Cl)c(C5(C(=O)O)CC5)cc4F)cc3s2)nnn1C)c1ccccc1 [IT285]
> 500,–,50 to 500,Cc1nsc(-c2ccc(NC(=O)c3csc(C4(C(=O)O)CC4)c3)cc2)c1NC(=O)O[C@H](C)c1ccccc1 [IT193]
–,< 50,–,C[C@@H](OC(=O)Nc1c(C#Cc2cc3sc(C4(C(=O)NS(C)(=O)=O)CC4)cc3s2)cnn1C)c1ccccc1 [IT098]
50 to 500,–,< 50,Cc1nsc(-c2cc(Cl)c(-c3cc4sc(C5(C(=O)O)CC5)cc4s3)cc2F)c1NC(=O)O[C@H](C)c1ccccc1 [IT281]
> 500,–,50 to 500,Cc1cc(CC(=O)O)ccc1-c1cc2sc(-c3snc(C)c3NC(=O)O[C@H](C)c3ccccc3)cc2s1 [IT170]
> 500,–,50 to 500,Cc1nsc(-c2ccc(-c3cc(F)c(OC(C)(C)C(=O)O)c(F)c3)cc2)c1NC(=O)O[C@H](C)c1ccccc1 [IT502]
50 to 500,–,50 to 500,Cc1noc(-c2ccc(-c3ccc(S(C)(=O)=O)nc3)cc2)c1NC(=O)O[C@H](C)c1ccccc1 [IT139]
> 500,–,< 50,C[C@@H](OC(=O)Nc1c(-c2cc3sc(-c4ccc(CC(=O)O)c(F)c4)cc3s2)cnn1C)c1ccccc1 [IT164]
> 500,–,> 500,Cc1nsc(-c2ccc(-c3ccc(CC(=O)O)s3)cc2)c1NC(=O)O[C@H](C)c1ccccc1 [IT141]
50 to 500,–,50 to 500,C[C@@H](OC(=O)Nc1c(-c2cc3sc(-c4ccc(CC(=O)O)cc4)cc3s2)nnn1C)c1ccccc1 [IT160]
> 500,–,> 500,C[C@@H](OC(=O)Nc1c(C#Cc2cc3sc(C4(C(=O)O)CC4)cc3s2)cnn1C)c1c(F)c(F)c(F)c(F)c1F [IT118]
50 to 500,–,< 50,C[C@@H](OC(=O)Nc1c(-c2cc3sc(-c4ccc(C5(C(=O)O)CC5)c(F)c4)cc3s2)nnn1C)c1ccccc1 [IT296]
50 to 500,–,< 50,C[C@@H](OC(=O)Nc1c(-c2cc3sc(-c4cc(F)c(C5(C(=O)O)CC5)cc4F)cc3s2)cnn1C)c1ccccc1 [IT347]
50 to 500,–,< 50,Cc1noc(-c2ccc(-c3ccc(Oc4nccnc4C(=O)O)cc3)cc2)c1NC(=O)O[C@H](C)c1ccccc1 [IT232]
> 500,–,50 to 500,Cc1nsc(-c2ccc(-c3ccc(OC(C)(C)C(=O)O)c(F)c3)cc2)c1NC(=O)O[C@H](C)c1ccccc1 [IT507]
50 to 500,–,< 50,Cc1noc(-c2ccc(-c3ccc(Oc4cccc(F)c4C(=O)O)cc3)cc2)c1NC(=O)O[C@H](C)c1ccccc1 [IT454]
> 500,–,50 to 500,"CCC(C)OC(=O)Nc1c(C)noc1-c1ccc(-c2ccc(Oc3ccccc3C(=O)O)cc2)cc1 (single isomer, unassigned) [IT493]"
50 to 500,–,< 50,C[C@@H](OC(=O)Nc1c(-c2ccc(-c3ccc(Oc4cccc(F)c4C(=O)O)cc3)cc2)cnn1C)c1ccccc1 [IT456]
> 500,–,< 50,CCOC(=O)c1cccnc1Oc1c(F)cc(-c2ccc(-c3nnn(C)c3NC(=O)O[C@H](C)c3ccccc3)cc2)cc1F [IT476]
50 to 500,–,50 to 500,Cc1noc(-c2ccc(-c3ccc(Oc4nnccc4C(=O)O)cc3)cc2)c1NC(=O)O[C@H](C)c1ccccc1 [IT231]
> 500,–,> 500,Cc1noc(-c2ccc(-c3ccc(S(=O)(=O)N4CCCC4)cc3)cc2)c1NC(=O)O[C@H](C)c1ccccc1 [IT153]
50 to 500,–,< 50,C[C@@H](OC(=O)Nc1c(-c2cc3sc(-c4ccc(C5(C(=O)O)CC5)cc4)cc3s2)nnn1C)c1ccccc1 [IT149]
